Test results taken from patent US12624008B2, “4-((6-oxopyrimidin-1(6H)-yl)methyl)benzoic acid as an inducer of Z A1AT secretion for treating AATD” (CENTESSA PHARMACEUTICALS (UK) LIMITED, priority 2020, dated 2026).

Tested on: Z A1AT
Assay: Z A1AT cell secretion assay using HEK-Z cells (ELISA of supernatant)
Type: cell-based, human
Conditions: HEK-Z cells, 10, 33, 100 and 333 nM, 48 h, FIG. 1 y-axis in ng/ml
Protocol: HEK-Z cells, a human embryonic kidney cell line stably transfected with the human Z AAT gene, were plated into 96 well plates (3.0×10^5 cells/ml with 200 μl of media/well) overnight at 37° C. in a humidified atmosphere containing 5% CO2. Following incubation cells were washed with 200 μl serum-free media three times and media was replaced with treatments in quadruplicate using vehicle, 10 μM suberanilohydroxamic acid (SAHA) or 4-((6-oxopyrimidin-1(6H)-yl)methyl)benzoic acid (at concentrations of 10, 33, 100 and 333 nM) for 48 h in a 37° C. incubator in a final volume of 200 μl. At the end of the incubation step the supernatants were removed from the wells, centrifuged at 1000×g at 4° C. for 10 min and were assayed for Z A1AT levels by ELISA (Human Serpin A1/α1-antitrypsin duo set ELISA, R&D Systems, DY1268) per manufacturer's instructions.
Briefly, a 96 well plate was coated with human A1AT capture antibody overnight at room temperature (1:180 dilution from stock, 100 μl final volume/well). […] After which, 50 μl stop solution (2M H2SO4) was added and optical density (OD) of each well was read at 450 nm with 570 nm blank subtracted from each well using a microplate reader. A 4 parameter logistic curve was constructed using GraphPad Prism 8 and Z A1AT concentrations were determined in each sample by interpolation from a standard curve and multiplying by the appropriate dilution factor.

Compound: O=C(O)c1ccc(Cn2cnccc2=O)cc1 [4-((6-oxopyrimidin-1(6H)-yl)methyl)benzoic acid]
- secretion of Z A1AT (concentration of Z A1AT in the cell supernatant): increased in a dose dependent manner
